Measurements taken from ChEMBL document CHEMBL3856199, “Melanoma-targeted delivery system (part 2): Synthesis, radioiodination and biological evaluation in B16F0 bearing mice” (Eur J Med Chem, 2016).

What was measured:
[1] = Drug uptake in tumor of C57BL/6J mouse implanted with mouse B16F0 cells at 3.7 MBq, iv measured at 1 hr post injection by gamma counting analysis; type: ADME, organism-based, Neoplasm; conditions: in vivo
[2] = Drug uptake in muscles of C57BL/6J mouse implanted with mouse B16F0 cells at 3.7 MBq, iv measured at 1 hr post injection by gamma counting analysis; type: ADME, organism-based, Muscle tissue; conditions: in vivo
[3] = Drug uptake in stomach of C57BL/6J mouse implanted with mouse B16F0 cells at 3.7 MBq, iv measured at 72 hrs post injection by gamma counting analysis; type: ADME, organism-based; conditions: in vivo
[4] = tested on: Mus musculus; assay: Toxicity in C57BL/6J mouse assessed as closed eyes at 3.7 MBq, iv measured up to 72 hrs post injection; type: organism-based; conditions: in vivo
[5] = Drug uptake in tumor of C57BL/6J mouse implanted with mouse B16F0 cells at 3.7 MBq, iv measured at 6 hrs post injection by gamma counting analysis; type: ADME, organism-based, Neoplasm; conditions: in vivo
[6] = Ratio of drug uptake in tumor to blood in C57BL/6J mouse implanted with mouse B16F0 cells at 3.7 MBq, iv measured at 6 hrs post injection; type: ADME, organism-based; conditions: tumour
[7] = Drug uptake in intestine of C57BL/6J mouse implanted with mouse B16F0 cells at 3.7 MBq, iv measured at 24 hrs post injection by gamma counting analysis; type: ADME, organism-based; conditions: in vivo
[8] = Drug uptake in kidney of C57BL/6J mouse implanted with mouse B16F0 cells at 3.7 MBq, iv measured at 3 hrs post injection by gamma counting analysis; type: ADME, organism-based; conditions: in vivo
[9] = Drug uptake in eyes of C57BL/6J mouse implanted with mouse B16F0 cells at 3.7 MBq, iv measured at 3 hrs post injection by gamma counting analysis; type: ADME, organism-based, Eye; conditions: in vivo
[10] = Drug uptake in kidney of C57BL/6J mouse implanted with mouse B16F0 cells at 3.7 MBq, iv measured at 24 hrs post injection by gamma counting analysis; type: ADME, organism-based; conditions: in vivo
[11] = Ratio of drug uptake in tumor to blood in C57BL/6J mouse implanted with mouse B16F0 cells at 3.7 MBq, iv measured at 3 hrs post injection; type: ADME, organism-based
[12] = Ratio of drug uptake in tumor to blood in C57BL/6J mouse implanted with mouse B16F0 cells at 3.7 MBq, iv measured at 24 hrs post injection; type: ADME, organism-based
[13] = Drug uptake in blood of C57BL/6J mouse implanted with mouse B16F0 cells at 3.7 MBq, iv measured at 24 hrs post injection by gamma counting analysis; type: ADME, organism-based; conditions: in vivo
[14] = Drug uptake in eyes of C57BL/6J mouse implanted with mouse B16F0 cells at 3.7 MBq, iv measured at 72 hrs post injection by gamma counting analysis; type: ADME, organism-based, Eye; conditions: in vivo
[15] = Drug uptake in thyroid/submaxillary glands of C57BL/6J mouse implanted with mouse B16F0 cells at 3.7 MBq, iv measured at 3 hrs post injection by gamma counting analysis; type: ADME, organism-based, Submaxillary gland/Thyroid; conditions: in vivo
[16] = Drug uptake in liver of C57BL/6J mouse implanted with mouse B16F0 cells at 3.7 MBq, iv measured at 6 hrs post injection by gamma counting analysis; type: ADME, organism-based; conditions: in vivo
[17] = Drug uptake in kidney of C57BL/6J mouse implanted with mouse B16F0 cells at 3.7 MBq, iv measured at 72 hrs post injection by gamma counting analysis; type: ADME, organism-based; conditions: in vivo
[18] = Drug uptake in blood of C57BL/6J mouse implanted with mouse B16F0 cells at 3.7 MBq, iv measured at 72 hrs post injection by gamma counting analysis; type: ADME, organism-based; conditions: in vivo
[19] = Drug uptake in muscles of C57BL/6J mouse implanted with mouse B16F0 cells at 3.7 MBq, iv measured at 6 hrs post injection by gamma counting analysis; type: ADME, organism-based, Muscle tissue; conditions: in vivo
[20] = Drug uptake in thyroid/submaxillary glands of C57BL/6J mouse implanted with mouse B16F0 cells at 3.7 MBq, iv measured at 1 hr post injection by gamma counting analysis; type: ADME, organism-based, Submaxillary gland/Thyroid; conditions: in vivo
[21] = Drug uptake in kidney of C57BL/6J mouse implanted with mouse B16F0 cells at 3.7 MBq, iv measured at 6 hrs post injection by gamma counting analysis; type: ADME, organism-based; conditions: in vivo
[22] = Drug uptake in muscles of C57BL/6J mouse implanted with mouse B16F0 cells at 3.7 MBq, iv measured at 72 hrs post injection by gamma counting analysis; type: ADME, organism-based, Muscle tissue; conditions: in vivo
[23] = Drug level in blood of C57BL/6J mouse implanted with mouse B16F0 cells treated with [125I]IUdR-SS-MTP at 3.7 MBq, iv measured at 15 to 60 mins post injection by RP-HPLC analysis; type: ADME, organism-based; conditions: in vivo
[24] = Drug level in urine of C57BL/6J mouse implanted with mouse B16F0 cells treated with [125I]IUdR-SS-MTP at 3.7 MBq, iv measured at 15 to 60 mins post injection by RP-HPLC analysis; type: ADME, organism-based; conditions: in vivo
[25] = Drug level in tumor of C57BL/6J mouse implanted with mouse B16F0 cells treated with [125I]IUdR-SS-MTP at 3.7 MBq, iv measured at 15 to 60 mins post injection by RP-HPLC analysis; type: ADME, organism-based, Neoplasm; conditions: in vivo

SMILES	Drug uptake [1] [% ID/g]	Drug uptake [2] [% ID/g]	Drug uptake [3] [% ID/g]	Activity [4]	Drug uptake [5] [% ID/g]	Ratio [6]	Drug uptake [7] [% ID/g]	Drug uptake [8] [% ID/g]	Drug uptake [9] [% ID/g]	Drug uptake [10] [% ID/g]	Kp at 3 h [11]	Kp at 24 h [12]	Drug uptake [13] [% ID/g]	Drug uptake [14] [% ID/g]	Drug uptake [15] [% ID/g]	Drug uptake [16] [% ID/g]	Drug uptake [17] [% ID/g]	Drug uptake [18] [% ID/g]	Drug uptake [19] [% ID/g]	Drug uptake [20] [% ID/g]	other results
CCN(CC)CCNC(=O)c1cnc2cc(NC(=O)COc3ccc(SSCCOC(=O)O[C@H]4C[C@H](n5cc([125I])c(=O)[nH]c5=O)O[C@@H]4CO)cc3)ccc2n1	2.23	0.47	0.23	Non-Toxic	1.94	2.08	0.4	1.89	0.85	0.2	1.07	5.63	0.13	0.08	20.47	0.47	0.32	1.94	0.19	11.05	Drug uptake [21]: 0.87 % ID/g; Drug uptake [22]: 0.06 % ID/g
O=c1[nH]c(=O)n([C@H]2C[C@H](O)[C@@H](CO)O2)cc1[125I]	2.79	1.13	0.2	Non-Toxic	1.19	2.58	0.34	1.08	0.43	0.12	1.14	7.24	0.07	0.03	14.55	0.24	0.08	0.02	0.11	13.63	Drug metabolism [23]: Metabolite_Detected; Drug metabolism [24]: Metabolite_Detected; Drug uptake [21]: 0.38 % ID/g; Drug uptake [22]: 0.03 % ID/g; Drug metabolism [25]: Metabolite_Detected
